Experimental data published in patent US20230339866A1, “Quinazoline compounds and the use thereof in the treatment of cancer” (TROBIO THERAPEUTICS PTY LTD, priority 2020, published 2023).

Legend:
[1] = system: A2780 (ovarian); assay: Anti-proliferative activity (Cell-Titre luminescence) against A2780 ovarian cancer cells; type: cell-based; settings: 72 h exposure, Cell-Titre luminescent reagent
Protocol: (§1) The ability of compounds of the invention to inhibit the proliferation of cancer cells representative of non-small cell lung cancer and ovarian cancer (Table 2), pancreatic cancer, colorectal cancer and prostate cancer (Table 3) was assessed. Briefly, a predetermined number of cells as calculated from cell growth assays for each of the cell lines employed were seeded into their respective culture medium (using ATCC culture parameters—http://www.atcc.org) and cultured for 24 h at 37° C. and 5% CO2 in 96-well culture plates. Once attached, each cell line was then exposed to various concentrations of each respective analogue (30, 10, 3, 1, 0.3 and 0.1 μM), cultured for a further 72 h and exposed to Cell-Titre luminescent reagent (100 μL/well) for a further 30 min. Luminescence was captured using an EnVision multilabel reader and the data for each analogue concentration compared against no treatment control. Cell viability was normalised to control (vehicle alone) and dose response curves, and half maximal effective concentration (EC50) values were determined using Graph Pad Prism 6 (nonlinear regression sigmoidal dose-response variable slope).

[2] = system: A549 (NSCLC); assay: Anti-proliferative activity (Cell-Titre luminescence) against A549 non-small cell lung cancer cells; type: cell-based; settings: 72 h exposure, Cell-Titre luminescent reagent
Protocol: as §1

Compound	IC50 ([1]; Homo sapiens, A2780, 72 h) [µM]	IC50 ([2]; Homo sapiens, A549, 72 h) [µM]	IC50 [1] [µM]	IC50 [2] [µM]
FC(F)(F)c1cccc(CCNc2nc(NCCN3CCCC3)c3ccccc3n2)c1 [Compound 115, N^4-(2-(pyrrolidin-1-yl)ethyl)-N^2-(3-(trifluoromethyl)phenethyl)quinazoline-2,4-diamine]	1.24	2.52		
COCCNc1nc(NCCc2cccc(C(F)(F)F)c2)nc2ccccc12 [Compound 116, N^4-(2-methoxyethyl)-N^2-(3-(trifluoromethyl)phenethyl)quinazoline-2,4-diamine]	1.39	3.6		
COCCCNc1nc(NCCc2cccc(C(F)(F)F)c2)nc2ccccc12 [Compound 117, N^4-(3-methoxypropyl)-N^2-(3-(trifluoromethyl)phenethyl)quinazoline-2,4-diamine]	1.62	3.05		
NCCNc1nc(NCCc2cccc(C(F)(F)F)c2)nc2ccccc12 [Compound 118, N^4-(2-aminoethyl)-N^2-(3-(trifluoromethyl)phenethyl)quinazoline-2,4-diamine]	1.92	4.05		
NCCCNc1nc(NCCc2cccc(C(F)(F)F)c2)nc2ccccc12 [Compound 119, N^4-(3-aminopropyl)-N^2-(3-(trifluoromethyl)phenethyl)quinazoline-2,4-diamine]	0.759	2.46		
CN1CCN(CCNc2nc(NCCc3ccccc3C(F)(F)F)nc3ccccc23)CC1 [Compound 120, N^4-(2-(4-methylpiperazin-1-yl)ethyl)-N^2-(2-(trifluoromethyl)phenethyl)quinazoline-2,4-diamine]	1.4	5.28		
CN1CCN(CCNc2nc(NCCc3ccccc3F)nc3ccccc23)CC1 [Compound 121, N^2-(2-fluorophenethyl)-N^4-(2-(4-methylpiperazin-1-yl)ethyl)quinazoline-2,4-diamine]	2.38	4		
Cc1ccccc1CCNc1nc(NCCN2CCN(C)CC2)c2ccccc2n1 [Compound 122, N^2-(2-methylphenethyl)-N^4-(2-(4-methylpiperazin-1-yl)ethyl)quinazoline-2,4-diamine]	2.68	3.17		
CN1CCN(CCNc2nc(NCCc3ccccc3Cl)nc3ccccc23)CC1 [Compound 123, N^2-(2-chlorophenethyl)-N^4-(2-(4-methylpiperazin-1-yl)ethyl)quinazoline-2,4-diamine]	2.38	3.36		
CN1CCN(CCNc2nc(NCCc3cccc(C#N)c3)nc3ccccc23)CC1 [Compound 126, 3-(2-((4-((2-(4-methylpiperazin-1-yl)ethyl)amino)quinazolin-2-yl)amino)ethyl)benzonitrile]	2.5	14.8		
Cc1ccc(CCNc2nc(NCCN3CCN(C)CC3)c3ccccc3n2)cc1 [Compound 127, N^2-(4-methylphenethyl)-N^4-(2-(4-methylpiperazin-1-yl)ethyl)quinazoline-2,4-diamine]	2.62	2.54		
CN1CCN(CCNc2nc(NCCc3ccc(Cl)cc3)nc3ccccc23)CC1 [Compound 130, N^2-(4-chlorophenethyl)-N^4-(2-(4-methylpiperazin-1-yl)ethyl)quinazoline-2,4-diamine]	2.88	10.9		
CN1CCN(CCNc2nc(NCCc3ccc(C#N)cc3)nc3ccccc23)CC1 [Compound 131, 4-(2-((4-((2-(4-methylpiperazin-1-yl)ethyl)amino)quinazolin-2-yl)amino)ethyl)benzonitrile]	3	11.5		
CN1CCN(CCNc2nc(NCCc3ccc(O)cc3)nc3ccccc23)CC1 [Compound 132, N^2-(4-hydroxyphenethyl)-N^4-(2-(4-methylpiperazin-1-yl)ethyl)quinazoline-2,4-diamine]	4.71	8.03		
CN1CCN(CCNc2nc(NCCc3ccc(N)cc3)nc3ccccc23)CC1 [Compound 133, N^2-(4-aminophenethyl)-N^4-(2-(4-methylpiperazin-1-yl)ethyl)quinazoline-2,4-diamine]	7.17	14.3		
CN1CCN(CCNc2nc(NCCc3ccc(N(C)C)cc3)nc3ccccc23)CC1 [Compound 134, N^2-(4-(dimethylamino)phenethyl)-N^4-(2-(4-methylpiperazin-1-yl)ethyl)quinazoline-2,4-diamine]	2.68	8.86		
CN1CCN(CCNc2nc(NCCc3ccc(Cl)c(Cl)c3)nc3ccccc23)CC1 [Compound 135, N^2-(3,4-dichlorophenethyl)-N^4-(2-(4-methylpiperazin-1-yl)ethyl)quinazoline-2,4-diamine]	0.66	3.19		
CN1CCN(CCNc2nc(NCCc3ccc(F)c(F)c3)nc3ccccc23)CC1 [Compound 136, N^2-(3,4-difluorophenethyl)-N^4-(2-(4-methylpiperazin-1-yl)ethyl)quinazoline-2,4-diamine]	1.03	4.77		
N^2-(3-methoxyphenyl)-N^4-(2-(4-methylpiperazin-1-yl)ethyl)quinazoline-2,4-diamine [Compound 43]			1.03	6.09

Other lines, results leading:

IC50 ([1]; Homo sapiens, A2780, 72 h) [µM]	IC50 ([2]; Homo sapiens, A549, 72 h) [µM]	IC50 [1] [µM]	IC50 [2] [µM]	Compound
8.71	13.4			COc1ccc(CCNc2nc(NCCN3CCN(C)CC3)c3ccccc3n2)cc1OC [Compound 137, N^2-(3,4-dimethoxyphenethyl)-N^4-(2-(4-methylpiperazin-1-yl)ethyl)quinazoline-2,4-diamine]
1.1	6.07			CN1CCN(CCNc2nc(NCCc3cc(F)cc(F)c3)nc3ccccc23)CC1 [Compound 138, N^2-(3,5-difluorophenethyl)-N^4-(2-(4-methylpiperazin-1-yl)ethyl)quinazoline-2,4-diamine]
1.1	3.44			CN1CCN(CCNc2nc(NCCc3cc(Cl)cc(Cl)c3)nc3ccccc23)CC1 [Compound 139, N^2-(3,5-dichlorophenethyl)-N^4-(2-(4-methylpiperazin-1-yl)ethyl)quinazoline-2,4-diamine]
7.26	13.2			COc1cc(CCNc2nc(NCCN3CCN(C)CC3)c3ccccc3n2)cc(OC)c1 [Compound 140, N^2-(3,5-dimethoxyphenethyl)-N^4-(2-(4-methylpiperazin-1-yl)ethyl)quinazoline-2,4-diamine]
1.22	3.3			CN1CCN(CCNc2nc(NCCc3cc(F)c(F)c(F)c3)nc3ccccc23)CC1 [Compound 141, N^4-(2-(4-methylpiperazin-1-yl)ethyl)-N^2-(3,4,5-trifluorophenethyl)quinazoline-2,4-diamine]
> 30	> 30			COc1cc(CCNc2nc(NCCN3CCN(C)CC3)c3ccccc3n2)cc(OC)c1OC [Compound 142, N^4-(2-(4-methylpiperazin-1-yl)ethyl)-N^2-(3,4,5-trimethoxyphenethyl)quinazoline-2,4-diamine]
3.01	9.48			CN1CCN(CCNc2nc(NCCc3ccc4c(c3)OCO4)nc3ccccc23)CC1 [Compound 143, N^2-(2-(benzo[d][1,3]dioxol-5-yl)ethyl)-N^4-(2-(4-methylpiperazin-1-yl)ethyl)quinazoline-2,4-diamine]
9.37	27.8			CN1CCN(CCNc2nc(NCCc3ccccn3)nc3ccccc23)CC1 [Compound 144, N^4-(2-(4-methylpiperazin-1-yl)ethyl)-N^2-(2-(pyridin-2-yl)ethyl)quinazoline-2,4-diamine]
10.9	> 30			CN1CCN(CCNc2nc(NCCc3cccnc3)nc3ccccc23)CC1 [Compound 145, N^4-(2-(4-methylpiperazin-1-yl)ethyl)-N^2-(2-(pyridin-3-yl)ethyl)quinazoline-2,4-diamine]
14.1	15.7			CN1CCN(CCNc2nc(NCCc3ccncc3)nc3ccccc23)CC1 [Compound 146, N^4-(2-(4-methylpiperazin-1-yl)ethyl)-N^2-(2-(pyridin-4-yl)ethyl)quinazoline-2,4-diamine]
2.81	3.18			CN1CCN(CCNc2nc(NCCc3cccs3)nc3ccccc23)CC1 [Compound 147, N^4-(2-(4-methylpiperazin-1-yl)ethyl)-N^2-(2-(thiophen-2-yl)ethyl)quinazoline-2,4-diamine]
7.77	> 30			CN1CCN(CCNc2nc(NCCc3ccco3)nc3ccccc23)CC1 [Compound 148, N^2-(2-(furan-2-yl)ethyl)-N^4-(2-(4-methylpiperazin-1-yl)ethyl)quinazoline-2,4-diamine]
5.04	3.51			OCCNc1nc(Nc2ccccc2O)nc2ccccc12 [Compound 149]
12.2	16.5			CN1CCN(CCNc2nc(OCCc3cccc(C(F)(F)F)c3)nc3ccccc23)CC1 [Compound 150, N-(2-(4-methylpiperazin-1-yl)ethyl)-2-(3-(trifluoromethyl)phenethoxy)quinazolin-4-amine]
5.81	7.41			CN1CCN(CCNc2nc(SCCc3cccc(C(F)(F)F)c3)nc3ccccc23)CC1 [Compound 151, N-(2-(4-methylpiperazin-1-yl)ethyl)-2-((3-(trifluoromethyl)phenethyl)thio)quinazolin-4-amine]
